Reference: article PMC7822874, “Chemoprotective antimalarials identified through quantitative high-throughput screening of Plasmodium blood and liver stage parasites” (Scientific Reports, 2021)
“Also recorded” adds a separate entry of the source. Read-outs that look alike come from different tables or passages of the source.

Tests used:
[1] = system: P. falciparum Dd2 (clone B2) asexual blood stage parasites; experiment: P. falciparum Dd2 asexual blood stage SYBR Green-I 72 h proliferation assay (qHTS); format: cell-based, Plasmodium falciparum
[2] = system: P. falciparum Dd2 Cytb G131S; experiment: SYBR Green ABS proliferation assay, NCGC00374598 selected clone C11; format: cell-based, Plasmodium falciparum
Outline: (§1)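 Drug-selected Dd2 clones bearing the cytochrome b mutation were cultured at 37 °C under 5% CO2, 5% O2, 90% N2. Growth was read at 72 h by SYBR Green-I fluorescence, normalized to controls as percent response.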

[3] = system: P. falciparum Dd2 Cytb V259L; experiment: SYBR Green ABS proliferation assay, NCGC00473217 selected clone F06; format: cell-based, Plasmodium falciparum
Outline: as §1

[4] = system: P. falciparum Dd2 Cytb A122D; experiment: SYBR Green ABS proliferation assay, NCGC00473217 selected clone F12; format: cell-based, Plasmodium falciparum
Outline: as §1

[5] = system: P. falciparum Dd2 Cytb F123L; experiment: SYBR Green ABS proliferation assay, NCGC00473217 selected clone G08; format: cell-based, Plasmodium falciparum
Outline: as §1

[6] = system: luciferase-expressing P. berghei liver stage parasites in HepG2 cells; experiment: Inhibition of liver-stage development assay (ILSDA), Method 2 (WRAIR, 96-well); format: cell-based, Plasmodium berghei; conditions: for AC50: Plasmodium berghei
[7] = HepG2 mammalian toxicity, CellTiter-Glo, 48 h; conditions: human, HepG2 cells, HepG2 AC50 (mammalian cellular toxicity), 48 h compound exposure
HepG2 cells = experiment: HepG2 mammalian toxicity, CellTiter-Glo, 48 h; conditions: 48 h compound exposure
Aqueous solubility = format: physicochemical; conditions: for solubility: aqueous media
Method: (§2) Pharmacokinetic modeling experiments, parallel artificial membrane permeability assay (PAMPA), solubility, and rat liver microsome stability assessment were performed on all synthetic compounds, as previously described[73]–[75].

[8] = Parallel artificial membrane permeability assay (PAMPA); format: in vitro ADME; conditions: for PAMPA pH7.4: pH 7.4
Method: as §2

[9] = Rat liver microsomal stability (RLMS); conditions: rat liver microsomes; for half-life: rat
Method: as §2

[10] = system: P. berghei-ANKA-GFP-LucCON liver stage parasites in HepG2-A16-CD81EGFP cells; experiment: P. berghei liver stage Pb-Luc assay, Method 1 (UCSD, 1536-well); format: cell-based, Plasmodium berghei; conditions: Plasmodium berghei
[11] = system: P. falciparum Dd2-B2 parasites; experiment: In vitro resistance selection under constant drug pressure; format: cell-based, Plasmodium falciparum
Method: Recently cloned P. falciparum Dd2-B2 parasites, cultured in duplicate flasks each harboring an inoculum of 2 × 10^9 parasites, were subjected to constant drug pressure from NCGC00473217 at 5 × AC50 or NCGC00374598 at 3 × AC50. […] Clones were then obtained by limiting dilution and three to four clones from each flask were expanded for profiling and sequencing.
Fresh uninfected RBCs (0.5% hematocrit) were added on day 7 and media was changed every other day. […] Resistant parasites were maintained under drug media at a volume of 50 mL until a high parasitemia (> 5%) was achieved. Aliquots of the bulk resistant cultures were frozen in cryovials before cloning by limiting dilution in 96-well plates (seeded at 0.25 or 0.5 parasites/well)[70]. After 3 weeks of cloning, we screened for positive wells by flow cytometry with SYBR Green-stained cells. […] Parasites were harvested by saponin lysis at the trophozoite stage and genomic DNA was extracted using the QIAamp DNA Blood Midi Kit (Qiagen, Germantown, MD)[71].

in vitro = conditions: human, HepG2-A16-CD81EGFP cells, uninfected
[12] = system: P. falciparum Dd2 cytochrome b mutant lines; experiment: Drug response of drug-selected cytochrome b mutant lines versus parental Dd2-B2 (panel); format: cell-based, Plasmodium falciparum; conditions: all cytochrome b mutant lines vs Dd2-B2
Method: As resistance selection studies implicated the parasite cytochrome bc1 complex in mediating reduced parasite susceptibility to both NCGC00473217 and NCGC00374598, we leveraged these drug-selected parasites to test for altered drug response to a panel of antimalarial compounds.
The P. falciparum parasite Dd2 line was cultured in vitro using standard conditions. […] Tissue culture flasks and assay plates were incubated at 37 °C under a gas mixture of 5% CO2, 5% O2 and 90% N2. […] Significant differences were assessed using two-sided Student’s t-tests. All HTS assays were stopped and read at 72 h. Percent response values represent relative growth as judged by SYBR Green-I fluorescence intensity values normalized to controls.

[13] = Plasmodium falciparum, DD2, 72 h, SYBR Green 72 h, WT Dd2-B2, read-out: AC50 Log[M] ± SD, Dd2-B2 (parental line) (converted)
[14] = Plasmodium falciparum, DD2, 72 h, SYBR Green 72 h, approximate value in μM, read-out: AC50 [μM], Dd2-B2 (parental line) (converted)
[15] = Plasmodium falciparum, DD2, NCGC00374598 selected clone C11, read-out: AC50 [μM], Cytb G131S (converted)
[16] = Plasmodium falciparum, DD2, NCGC00374598 selected clone, read-out: AC50 Log[M] ± SD, Cytb G131S (converted)
[17] = Plasmodium falciparum, DD2, NCGC00473217 selected clone F06, read-out: AC50 [μM], Cytb V259L (converted)
[18] = Plasmodium falciparum, DD2, NCGC00473217 selected clone, read-out: AC50 Log[M] ± SD, Cytb V259L (converted)
[19] = Plasmodium falciparum, DD2, NCGC00473217 selected clone F12, read-out: AC50 [μM], Cytb A122D (converted)
[20] = Plasmodium falciparum, DD2, NCGC00473217 selected clone, read-out: AC50 Log[M] ± SD, Cytb A122D (converted)
[21] = Plasmodium falciparum, DD2, NCGC00473217 selected clone G08, highest concentration 29 µM, read-out: AC50 [μM], Cytb F123L (converted)
[22] = Plasmodium falciparum, DD2, NCGC00473217 selected clone, read-out: AC50 Log[M] ± SD, Cytb F123L (converted)
[23] = HepG2, 48 h, 48 h, firefly luciferase reporter P. berghei line, read-out: ILSDA AC50
[24] = Plasmodium falciparum, DD2, Suppl Table 6, read-out: AC50 (mM), Dd2 Cytb G131S
[25] = Plasmodium falciparum, DD2, Suppl Table 6, read-out: AC50 (mM), Dd2 Cytb V259L
[26] = Plasmodium falciparum, DD2, Suppl Table 6, read-out: AC50 (mM), Dd2 Cytb A122D
[27] = Plasmodium falciparum, DD2, Suppl Table 6, read-out: AC50 (mM), Dd2 Cytb F123L
[28] = Plasmodium falciparum, DD2, Suppl Table 6, read-out: AC50 (mM), WT (Dd2-B2)

Compound: CCCN1C(c2ccccc2)=NS(=O)(=O)c2cc(NC(=O)c3ccc(F)cc3)ccc21 [NCGC00532331]
- AC50 [1, 13]: 8.91e-07 M
- AC50 [1, 14]: 8.94e-07 M
- AC50 [μM], Dd2-B2 (parental line) ([1]; SYBR Green 72 h, approximate value in μM): sub-micromolar
- AC50 [μM], Cytb G131S ([2]; NCGC00374598 selected clone C11): maintained potency
- AC50 [2, 15]: 0.71 µM
- AC50 [2, 16]: 0.708 µM
- AC50 [3, 17]: 2.33 µM
- AC50 [3, 18]: 2.34 µM
- AC50 [4, 19]: 1.85 µM
- AC50 [4, 20]: 1.86 µM
- AC50 [5, 21]: 3.3 µM
- AC50 [5, 22]: 3.31 µM
- AC50 [6, 23]: 48 nM
- AC50 ([6]; HepG2, 48 h, 48 h, read-out: ILSDA AC50 (Method 2)): < 50 nM
- AC50 at 48 h [7]: > 20 µM
- HepG2 AC50 (mammalian cellular toxicity) (HepG2 cells): Neither compound was cytotoxic
- Aqueous Solubility (Aqueous solubility): poor aqueous solubility
- solubility (Aqueous solubility): < 1 µg/mL
- PAMPA permeability [8]: good PAMPA permeability; also recorded: favorable
- PAMPA pH7.4 [8]: 896 1e-6 cm/s
- RLMS T1/2 [9]: favorable
- half-life [9]: > 30 min

Compound: CCCN1C(CC(C)C)=NS(=O)(=O)c2cc(NC(=O)c3cccs3)ccc21 [NCGC00473217]
- AC50 [1, 13]: 2.19e-07 M
- AC50 [1, 14]: 2.19e-07 M
- AC50 [2, 15]: 0.68 µM
- AC50 [2, 16]: 0.676 µM
- AC50 [2, 24]: 0.676 µM
- AC50 [3, 17]: 1.18 µM
- AC50 [3, 18]: 1.17 µM
- AC50 [3, 25]: 1.18 µM
- AC50 [4, 19]: 2.82 µM
- AC50 [4, 20]: 2.82 µM
- AC50 [4, 26]: 2.82 µM
- AC50 [μM], Cytb F123L ([5]; NCGC00473217 selected clone G08, highest concentration 29 µM): greater than the maximum concentration tested
- AC50 ([5]; NCGC00473217 selected clone G08, highest concentration 29 µM, read-out: AC50 [μM], Cytb F123L (converted)): > 29 µM
- AC50 [5, 21]: > 29 µM
- AC50 [5, 27]: > 29 µM
- IC50 shift, F123L clone ([5]; versus parental): > 500 fold
- AC50 ([10]; UCSD, read-out: liver stage AC50 (Method 1)): 3 nM
- inhibition at 1 µM ([10]; 1 μM): > 90%
- inhibition at 3 µM ([10]; 3 μM): > 95%
- Activity direction (Decrease / Inactive) ([6]; P. berghei liver stage, Method 2, dose response): Decrease
- AC50 [6, 23]: 112 nM
- AC50 ([6]; HepG2, P. berghei liver stage, Method 2, dose response, read-out: Log AC50 (converted)): 112 nM
- solubility (Aqueous solubility): < 1 µg/mL
- PAMPA pH7.4 [8]: 222 1e-6 cm/s
- half-life [9]: 5 min
- Recrudescence under pressure ([11]; 2 × 10^9 parasites, 5 × AC50 (NCGC00473217) or 3 × AC50 (NCGC00374598)): 14 to 17 days
- AC50 increase of selected clones ([11]; clones from selections with the same compound): 10 to 60 fold
- viability at 66 h (in vitro): 106%

Compound: COc1cc2[nH]c(C)c(-c3ccc(Oc4ccc(OC(F)(F)F)cc4)cc3)c(=O)c2cc1Cl [ELQ-300, reference compound]
- AC50 Log[M] ± SD, Dd2-B2 (parental line) ([1]; SYBR Green 72 h, WT Dd2-B2): -7.13 Log[M]
- AC50 ([1]; Suppl Table 6, read-out: AC50 (mM), WT (Dd2-B2)): 7.5e-08 M
- AC50 Log[M] ± SD, Cytb G131S ([2]; NCGC00374598 selected clone): -7.16 Log[M]
- AC50 ([2]; Suppl Table 6, read-out: AC50 (mM), Dd2 Cytb G131S): 0.0693 µM
- AC50 Log[M] ± SD, Cytb V259L ([3]; NCGC00473217 selected clone): -7.06 Log[M]
- AC50 ([3]; Suppl Table 6, read-out: AC50 (mM), Dd2 Cytb V259L): 0.0873 µM
- AC50 Log[M] ± SD, Cytb A122D ([4]; NCGC00473217 selected clone): -7.39 Log[M]
- AC50 ([4]; Suppl Table 6, read-out: AC50 (mM), Dd2 Cytb A122D): 0.0406 µM
- AC50 Log[M] ± SD, Cytb F123L ([5]; NCGC00473217 selected clone): -7.68 Log[M]
- AC50 ([5]; Suppl Table 6, read-out: AC50 (mM), Dd2 Cytb F123L): 0.0211 µM
- change in susceptibility across drug-selected lines [12]: no observed change in susceptibility

Compound: CO[C@H]1O[C@@H]2O[C@@]3(C)CC[C@H]4[C@H](C)CC[C@@H]([C@H]1C)[C@@]24OO3 [Artemether, artemether, reference compound]
- AC50 [1, 13]: 5.13e-08 M
- AC50 [1, 28]: 5.11e-08 M
- AC50 [2, 16]: 0.0324 µM
- AC50 [2, 24]: 0.0322 µM
- AC50 [3, 18]: 0.0661 µM
- AC50 [3, 25]: 0.0668 µM
- AC50 [4, 20]: 0.0661 µM
- AC50 [4, 26]: 0.0668 µM
- AC50 [5, 22]: 0.0363 µM
- AC50 [5, 27]: 0.0361 µM
- change in susceptibility across drug-selected lines [12]: no observed change in susceptibility

Compound: OC(c1cc(C(F)(F)F)nc2c(C(F)(F)F)cccc12)C1CCCCN1 (centres unmarked) [Mefloquine, mefloquine, reference compound]
- AC50 [1, 13]: 7.76e-08 M
- AC50 [1, 28]: 7.78e-08 M
- AC50 [2, 16]: 0.0832 µM
- AC50 [2, 24]: 0.0841 µM
- AC50 [3, 18]: 0.123 µM
- AC50 [3, 25]: 0.123 µM
- AC50 [4, 20]: 0.129 µM
- AC50 [4, 26]: 0.128 µM
- AC50 [5, 22]: 0.0977 µM
- AC50 [5, 27]: 0.0979 µM
- change in susceptibility across drug-selected lines [12]: no observed change in susceptibility
